Experimental data reported in ChEMBL document CHEMBL1129182, “Oximes: A new class of methoxytetrahydropyranyl inhibitors of leukotriene biosynthesis with high in vitro and in vivo potency” (Bioorg Med Chem Lett, 1996).
Values after ≈ are worked out from the molar mass of the structure shown.

Assays:
Homo sapiens = organism: Homo sapiens; assay: In vitro inhibitory activity against LTB4 synthesis in A-23187 stimulated human whole blood (HB1).; type: functional
Rattus norvegicus = organism: Rattus norvegicus; assay: compound was tested for oral activity in the rat using zymosan-inflamed air pouch exudate at 3 hrs post dose(RAP).; type: functional
[1] = Solubility was evaluated; type: physicochemical
[2] = pKa value was evaluated; type: physicochemical

SMILES	IC50 (Homo sapiens)	solubility [1]	pKa [2]	ED50 (Rattus norvegicus)
COC1(c2csc(Sc3ccc4c(c3)CC/C4=N\OCC#N)c2)CCOCC1	40 nM	–	–	–
COC1(c2cc(F)cc(Sc3ccc(/C(C)=N/OCC#N)cc3)c2)CCOCC1	20 nM	–	–	–
COC1(c2cc(F)cc(Sc3ccc(/C(C)=N/OC(C)C)cc3)c2)CCOCC1	920 nM	–	–	–
COC1(c2cc(F)cc(Sc3ccc(/C(C)=N/OCCF)cc3)c2)CCOCC1	40 nM	–	–	–
COC1(c2cc(F)cc(Sc3ccccc3/C(C)=N/O)c2)CCOCC1	> 10000 nM	–	–	–
CO[C@]1(c2cnc(Sc3ccc(/C(C)=N/O)cc3)s2)CCO[C@@H](C)C1	40 nM	–	–	0.3 mg/kg
CO[C@]1(c2cnc(S(=O)(=O)c3ccc(/C(C)=N/OCC#N)cc3)s2)CCO[C@@H](C)C1	140 nM	1 µM (≈ 0.45 µg/mL)	–	0.5 mg/kg
CO[C@]1(c2cnc(S(=O)(=O)c3ccc(/C(C)=N/O)cc3)s2)CCO[C@@H](C)C1	320 nM	31 µM (≈ 12.7 µg/mL)	–	1 mg/kg
CCOC(=O)CO/N=C(\C)c1ccc(Sc2cc(F)cc(C3(OC)CCOCC3)c2)cc1	610 nM	–	–	–
CO[C@]1(c2cnc(Sc3ccc(/C(C)=N/OCC#N)cc3)s2)CCO[C@@H](C)C1	40 nM	–	–	0.3 mg/kg
CO/N=C(\C)c1ccc(Sc2cc(F)cc([C@@]3(OC)CCO[C@@H](C)C3)c2)cc1	140 nM	–	–	0.15 mg/kg
CCOC(=O)/C(=N\O)c1ccc(Sc2cc(F)cc(C3(OC)CCOCC3)c2)cc1	170 nM	–	9.3	–
CO[C@]1(c2cc(F)cc(Sc3ccc(/C(C)=N/OCC#N)cc3)c2)CCO[C@@H](C)C1	40 nM	–	–	0.15 mg/kg
COC1(c2cc(F)cc(Sc3ccc(/C(=N/O)C(F)(F)F)cc3)c2)CCOCC1	280 nM	–	7.68	–
COC1(c2cc(F)cc(Sc3ccc(/C(C)=N/OCCSc4nnc(C)s4)cc3)c2)CCOCC1	230 nM	–	–	–
COC(=O)C(C)(C)CO/N=C(\C)c1ccc(Sc2cc(F)cc(C3(OC)CCOCC3)c2)cc1	420 nM	–	–	–
CO[C@]1(c2cc(F)cc(S(=O)(=O)c3ccc(/C(C)=N/O)cc3)c2)CCO[C@@H](C)C1	20 nM	4.6 µM (≈ 1.94 µg/mL)	–	0.1 mg/kg
COC1(c2cc(F)cc(Sc3ccc(/C(C)=N/OC(C)=O)cc3)c2)CCOCC1	50 nM	–	–	–
CO[C@]1(c2cc(F)cc(Sc3ccc(/C(C)=N/O)cc3)c2)CCO[C@@H](C)C1	40 nM	0.6 µM (≈ 0.234 µg/mL)	–	0.05 mg/kg
COC1(c2cc(F)cc(Sc3ccc(/C(C)=N/OC(=O)C(C)(C)C)cc3)c2)CCOCC1	40 nM	–	–	–
CCOC(=O)c1csc(CO/N=C(\C)c2ccc(Sc3cc(F)cc(C4(OC)CCOCC4)c3)cc2)n1	150 nM	–	–	–
COC1(c2cc(F)cc(Sc3ccc(/C(C)=N/OCC(=O)O)cc3)c2)CCOCC1	740 nM	–	–	–
CO[C@]1(c2cc(F)cc(S(=O)(=O)c3ccc(/C(C)=N/OCC#N)cc3)c2)CCO[C@@H](C)C1	60 nM	–	–	0.1 mg/kg
C/C(=N\OC(=O)N(C)C)c1ccc(Sc2cc(F)cc(C3CCOCC3)c2)cc1	2610 nM	–	–	–
COC1(c2cc(F)cc(OCc3ccc4c(ccc(=O)n4C)c3)c2)CCOCC1 [ZD-2138]	25 nM	–	–	–

More lines, main results first:

IC50 (Homo sapiens)	solubility [1]	pKa [2]	SMILES	ED50 (Rattus norvegicus)
50 nM	–	–	COC1(c2cc(F)cc(Sc3ccc4c(c3)OCC/C4=N\O)c2)CCOCC1	–
40 nM	–	–	COC1(c2cc(F)cc(Sc3ccc4c(c3)OCC/C4=N\OCC#N)c2)CCOCC1	–
60 nM	–	–	COC1(c2csc(Sc3ccc4c(c3)OCC/C4=N\OCC#N)c2)CCOCC1	0.15 mg/kg
250 nM	–	6.2	COC1(c2cc(F)cc(Sc3ccc(/C(C#N)=N/O)cc3)c2)CCOCC1	–
290 nM	–	–	COC1(c2cc(F)cc(Sc3ccc4c(c3)CC/C4=N\O)c2)CCOCC1	–
190 nM	–	–	COC1(c2cc(F)cc(Sc3ccc(/C(=N/O)SC)cc3)c2)CCOCC1	–
110 nM	–	–	CO/N=C(\C)c1ccc(Sc2cc(F)cc(C3(OC)CCOCC3)c2)cc1	–
850 nM	–	8.4	COC1(c2cc(F)cc(Sc3ccc(/C(=N/O)C(C)=O)cc3)c2)CCOCC1	–
130 nM	–	–	COC1(c2csc(Sc3ccc4c(c3)CC/C4=N\O)c2)CCOCC1	–
30 nM	–	–	COC1(c2cc(F)cc(Sc3ccc4c(c3)CC/C4=N\OCC#N)c2)CCOCC1	–
40 nM	–	–	COC1(c2csc(Sc3ccc4c(c3)OCC/C4=N\O)c2)CCOCC1	–
